Where “and” joins values, the source holds several entries; their conditions need not be identical. Equal entries are not always repeated. Toxic doses and inconclusive results are not listed. Cut-off read from the data, not from the text of the source: active = T/C of 150% or more; inactive = T/C below 125%.
Tested on: L1210 leukemia ip in BDF1 mice, survival T/C
Assay: NCI In Vivo Anticancer Drug Screen. Data for tumor model L1210 Leukemia (intraperitoneal) in B6D2F1 (BDF1) mice
Conditions: endpoint: mean survival time, higher = longer survival
Procedure, shortened: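 Tumor was transplanted into mice, which were then dosed with test compound or vehicle alone. Survival was recorded for each group, and the treated figure was expressed relative to the control figure.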

[1] = dose: 100.0 mg/kg/injection, schedule: Q04DX003 (ip), vehicle: saline
[2] = dose: 200.0 mg/kg/injection, schedule: Q04DX003 (ip), vehicle: saline
[3] = dose: 400.0 mg/kg/injection, schedule: Q04DX003 (ip), vehicle: saline
[4] = dose: 100.0 mg/kg/injection, schedule: Q01DX001 (ip), vehicle: Klucel (hydroxypropylcellulose) (HPC)
[5] = dose: 100.0 mg/kg/injection, schedule: Q01DX009 (ip), vehicle: Klucel (hydroxypropylcellulose) (HPC)
[6] = dose: 100.0 mg/kg/injection, schedule: Q04DX003 (ip), vehicle: Klucel (hydroxypropylcellulose) (HPC)
[7] = dose: 200.0 mg/kg/injection, schedule: Q01DX001 (ip), vehicle: Klucel (hydroxypropylcellulose) (HPC)
[8] = dose: 200.0 mg/kg/injection, schedule: Q01DX009 (ip), vehicle: Klucel (hydroxypropylcellulose) (HPC)
[9] = dose: 200.0 mg/kg/injection, schedule: Q04DX003 (ip), vehicle: Klucel (hydroxypropylcellulose) (HPC)
[10] = dose: 400.0 mg/kg/injection, schedule: Q01DX001 (ip), vehicle: Klucel (hydroxypropylcellulose) (HPC)
[11] = dose: 400.0 mg/kg/injection, schedule: Q01DX009 (ip), vehicle: Klucel (hydroxypropylcellulose) (HPC)
[12] = dose: 400.0 mg/kg/injection, schedule: Q04DX003 (ip), vehicle: Klucel (hydroxypropylcellulose) (HPC)
[13] = dose: 100.0 mg/kg/injection, schedule: Q04DX003 (ip), vehicle: saline with Tween-80
[14] = dose: 200.0 mg/kg/injection, schedule: Q04DX003 (ip), vehicle: saline with Tween-80
[15] = dose: 400.0 mg/kg/injection, schedule: Q04DX003 (ip), vehicle: saline with Tween-80
[16] = dose: 100.0 mg/kg/injection, schedule: Q01DX009 (ip), vehicle: saline with Tween-80
[17] = dose: 200.0 mg/kg/injection, schedule: Q01DX009 (ip), vehicle: saline with Tween-80
[18] = dose: 400.0 mg/kg/injection, schedule: Q01DX009 (ip), vehicle: saline with Tween-80
[19] = dose: 100.0 mg/kg/injection, schedule: Q01DX001 (ip), vehicle: saline
[20] = dose: 200.0 mg/kg/injection, schedule: Q01DX001 (ip), vehicle: saline
[21] = dose: 100.0 mg/kg/injection, schedule: Q01DX001 (ip), vehicle: saline with Tween-80
[22] = dose: 200.0 mg/kg/injection, schedule: Q01DX001 (ip), vehicle: saline with Tween-80
[23] = dose: 400.0 mg/kg/injection, schedule: Q01DX001 (ip), vehicle: saline with Tween-80
[24] = dose: 100.0 mg/kg/injection, schedule: Q01DX001 (ip), vehicle: other
[25] = dose: 200.0 mg/kg/injection, schedule: Q01DX001 (ip), vehicle: other
[26] = dose: 400.0 mg/kg/injection, schedule: Q01DX001 (ip), vehicle: other
[27] = dose: 100.0 mg/kg/injection, schedule: Q01DX001 (ip), vehicle: carboxymethylcellulose (CMC)
[28] = dose: 200.0 mg/kg/injection, schedule: Q01DX001 (ip), vehicle: carboxymethylcellulose (CMC)
[29] = dose: 400.0 mg/kg/injection, schedule: Q01DX001 (ip), vehicle: carboxymethylcellulose (CMC)

Measured: T/C

CCCCCCCCCCCCCCCC(=O)N(CCC#N)CCCCCCCCCN(CCC#N)C(=O)CCCCCCCCCCCCCCC
inactive: dose: 100.0 mg/kg/injection, schedule: Q01DX009 (ip), vehicle: saline 86 % of control | [1] 94 % of control | [2] 87 % of control | dose: 400.0 mg/kg/injection, schedule: Q01DX009 (ip), vehicle: saline 91 % of control | [3] 92 % of control

Cc1cc(NC(=O)Nc2cc(F)ccc2F)no1
inactive: [4] 117 % of control | [5] 97 % of control | dose: 100.0 mg/kg/injection, schedule: Q04DX002 (ip), vehicle: Klucel (hydroxypropylcellulose) (HPC) 94 % of control and 90 % of control | [6] 99 % of control | [7] 106 % of control | [8] 92 % of control and 100 % of control | dose: 200.0 mg/kg/injection, schedule: Q04DX002 (ip), vehicle: Klucel (hydroxypropylcellulose) (HPC) 94 % of control and 97 % of control | [9] 103 % of control | [10] 101 % of control | [11] 97 % of control and 90 % of control | dose: 400.0 mg/kg/injection, schedule: Q04DX002 (ip), vehicle: Klucel (hydroxypropylcellulose) (HPC) 94 % of control and 101 % of control | [12] 103 % of control

Cc1ccc(C(=O)C(Br)C(Br)c2ccc(C)cc2)cc1 (stereo not drawn)
inactive: [4] 105 % of control | [5] 96 % of control | [7] 99 % of control | [8] 91 % of control | [10] 94 % of control | [11] 95 % of control

COc1ccc(C(=O)/C=C/c2ccc3c(c2)OCO3)cc1OC
inactive: [5] 87 % of control | [6] 98 % of control | [8] 90 % of control | [9] 98 % of control | [11] 90 % of control | [12] 96 % of control

CCCCCC(C)C(=O)CCCC (stereo not drawn) (tested in a mixture with another compound)
inactive: [13] 106 % of control | [14] 97 % of control | [15] 86 % of control

O=[N+]([O-])CC(Nc1ccc(Br)cc1)c1ccccc1 (stereo not drawn)
inactive: dose: 67.0 mg/kg/injection, schedule: Q01DX009 (ip), vehicle: saline with Tween-80 95 % of control | [16] 97 % of control | dose: 150.0 mg/kg/injection, schedule: Q01DX009 (ip), vehicle: saline with Tween-80 100 % of control | [17] 91 % of control | [18] 86 % of control

c1ccc(-c2csc(NNc3nc(-c4ccccc4)cs3)n2)cc1
inactive: [6] 95 % of control | [9] 90 % of control | [12] 112 % of control

O=c1c2ccccc2sc2cccc(Sc3ccccc3)c12
inactive: [16] 101 % of control | [17] 98 % of control | [18] 98 % of control

Cc1ccc2cc3c(cc(C)c4ccccc43)c3c2c1CC3
inactive: [19] 102 % of control | [20] 96 % of control | dose: 400.0 mg/kg/injection, schedule: Q01DX001 (ip), vehicle: saline 96 % of control

COC(=O)C(C)NC(=O)CNC(=O)OCc1ccccc1 (stereo not drawn)
inactive: [16] 97 % of control | [17] 102 % of control | [18] 92 % of control

O=C1c2cscc2C(=O)c2sccc21
inactive: [21] 100 % of control | [22] 102 % of control | [23] 96 % of control

c1ccc(C(N2CCCCC2)N2CCCCC2)cc1
inactive: [6] 106 % of control | [9] 103 % of control

Cc1cc(=O)[nH]c(Nc2nc3cc(Cl)c(Cl)cc3[nH]2)n1
inactive: [16] 92 % of control | [17] 90 % of control | [18] 97 % of control

OCC1OC(n2ncc3nccnc32)C(O)C1O (stereo not drawn)
inactive: dose: 50.0 mg/kg/injection, schedule: Q01DX005 (ip), vehicle: other 105 % of control | dose: 100.0 mg/kg/injection, schedule: Q01DX005 (ip), vehicle: other 105 % of control | dose: 200.0 mg/kg/injection, schedule: Q01DX005 (ip), vehicle: other 91 % of control

O=C(O)CSc1ccccc1C(=O)O
inactive: dose: 50.0 mg/kg/injection, schedule: Q01DX001 (ip), vehicle: saline 93 % of control | dose: 75.0 mg/kg/injection, schedule: Q04DX003 (ip), vehicle: Klucel (hydroxypropylcellulose) (HPC) 94 % of control | [4] 96 % of control | [19] 100 % of control | dose: 150.0 mg/kg/injection, schedule: Q04DX003 (ip), vehicle: Klucel (hydroxypropylcellulose) (HPC) 90 % of control | [7] 120 % of control | [20] 102 % of control | dose: 300.0 mg/kg/injection, schedule: Q04DX003 (ip), vehicle: Klucel (hydroxypropylcellulose) (HPC) 92 % of control | [10] 102 % of control

NC(=O)Nc1cccc(C(=O)O)c1C(=O)O
inactive: [24] 101 % of control | dose: 100.0 mg/kg/injection, schedule: Q04DX003 (ip), vehicle: other 102 % of control | [25] 101 % of control | dose: 200.0 mg/kg/injection, schedule: Q04DX003 (ip), vehicle: other 98 % of control | [26] 107 % of control | dose: 400.0 mg/kg/injection, schedule: Q04DX003 (ip), vehicle: other 98 % of control

CCN(CC)CCOCCO
inactive: [1] 96 % of control | [2] 102 % of control | [3] 109 % of control

Cc1cc(C)c(S(=O)(=O)c2c(C)cc(C)cc2C)c(C)c1
inactive: dose: 25.0 mg/kg/injection, schedule: Q04DX003 (ip), vehicle: Klucel (hydroxypropylcellulose) (HPC) 100 % of control | dose: 50.0 mg/kg/injection, schedule: Q04DX003 (ip), vehicle: Klucel (hydroxypropylcellulose) (HPC) 93 % of control | [6] 88 % of control

OCC1OCOC(CI)C(O)C1O (stereo not drawn)
inactive: [27] 97 % of control | [28] 101 % of control | [29] 97 % of control

COc1cccc(C2CCCCC2OS(C)(=O)=O)c1 (stereo not drawn)
inactive: [27] 97 % of control | [28] 92 % of control | [29] 95 % of control

COc1cc(Br)c(CCBr)cc1OC
inactive: dose: 25.0 mg/kg/injection, schedule: Q01DX009 (ip), vehicle: Klucel (hydroxypropylcellulose) (HPC) 98 % of control | dose: 50.0 mg/kg/injection, schedule: Q01DX009 (ip), vehicle: Klucel (hydroxypropylcellulose) (HPC) 94 % of control | [5] 100 % of control | [13] 96 % of control | [14] 94 % of control | [15] 104 % of control

CCC(/C=C\C(C)C1CCC2C3CC=C4CC(OS(=O)(=O)c5ccc(C)cc5)CCC4(C)C3CCC12C)C(C)C (stereo not drawn)
inactive: [21] 90 % of control | [22] 90 % of control | [23] 86 % of control

O=C(Nc1cccc(Cl)c1)c1cc([N+](=O)[O-])ccc1O
inactive: dose: 5.0 mg/kg/injection, schedule: Q01DX001 (ip), vehicle: other 104 % of control | dose: 10.0 mg/kg/injection, schedule: Q01DX001 (ip), vehicle: other 104 % of control | dose: 10.0 mg/kg/injection, schedule: Q02DX010 (ip), vehicle: carboxymethylcellulose (CMC) 105 % of control | dose: 20.0 mg/kg/injection, schedule: Q01DX001 (ip), vehicle: other 104 % of control | dose: 20.0 mg/kg/injection, schedule: Q02DX010 (ip), vehicle: carboxymethylcellulose (CMC) 109 % of control | dose: 40.0 mg/kg/injection, schedule: Q01DX001 (ip), vehicle: other 101 % of control | dose: 40.0 mg/kg/injection, schedule: Q02DX010 (ip), vehicle: carboxymethylcellulose (CMC) 95 % of control | dose: 80.0 mg/kg/injection, schedule: Q01DX001 (ip), vehicle: other 95 % of control | dose: 80.0 mg/kg/injection, schedule: Q02DX010 (ip), vehicle: carboxymethylcellulose (CMC) 88 % of control | [24] 86 % of control | [25] 97 % of control | [26] 114 % of control
